Laboratory results reported in US8975406B2, “Compound useful for the treatment of degenerative and inflammatory diseases” (Galapagos N.V., priority 2011, dated 2015).

How the values were obtained:
Assay type in all cases: biochemical
Recombinant human JAK1 = molecular target: T1, Recombinant human JAK1 (Homo sapiens, UniProt P23458); assay: JAK1 Ulight-JAK1 peptide assay; settings: Ulight-JAK1(tyr1023) peptide, 7 μM ATP
T1 construct: catalytic domain (amino acids 866-1154; catalog number PV4774); purchased Invitrogen PV4774
T1 sequence (P23458 866-1154): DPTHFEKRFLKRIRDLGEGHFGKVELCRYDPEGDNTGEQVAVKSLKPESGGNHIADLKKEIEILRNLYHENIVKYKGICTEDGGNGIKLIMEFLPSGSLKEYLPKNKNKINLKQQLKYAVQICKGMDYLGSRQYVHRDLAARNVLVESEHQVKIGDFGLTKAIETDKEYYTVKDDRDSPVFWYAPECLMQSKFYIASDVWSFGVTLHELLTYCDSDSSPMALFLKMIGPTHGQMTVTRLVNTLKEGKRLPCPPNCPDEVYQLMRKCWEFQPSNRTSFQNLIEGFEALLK
Description: Recombinant human JAK1 (catalytic domain, amino acids 866-1154; catalog number PV4774) was purchased from Invitrogen. 1 ng of JAK1 was incubated with 20 nM Ulight-JAK1(tyr1023) peptide (Perkin Elmer catalog number TRF0121) in kinase reaction buffer (25 mM MOPS pH6.8, 0.01% Brij-35, 5 mM MgCl2, 2 mM DTT, 7 μM ATP) with or without 4 μL containing test compound or vehicle (DMSO, 1% final concentration), in a total volume of 20 μL, in a white 384 Opti plate (Perkin Elmer, catalog number 6007290). After 60 min at room temperature, reactions were stopped by adding 20 μL/well of detection mixture (1× detection buffer (Perkin Elmer, catalog number CR97-100C), 0.5 nM Europium-anti-phosphotyrosine (PT66) (Perkin Elmer, catalog number AD0068), 10 mM EDTA). Readout is performed using the Envision with excitation at 320 nm and measuring emission at 615 nm (Perkin Elmer). Kinase activity was calculated by subtracting relative fluorescence units (RFU) obtained in the presence of a positive control inhibitor (10 μM staurosporine) from RFU obtained in the presence of vehicle. The ability of a test compound to inhibit this activity was determined as: Percentage inhibition=((RFU determined for sample with test compound present−RFU determined for sample with positive control inhibitor)divided by(RFU determined in the presence of vehicle−RFU determined for sample with positive control inhibitor))*100.
(§1) Dose dilution series were prepared for the compounds enabling the testing of dose-response effects in the JAK1 assay and the calculation of the IC50 for the compound. Each compound is routinely tested at concentration of 20 μM followed by a ⅕ serial dilution, 10 points in a final concentration of 1% DMSO. When potency of compound series increases, more dilutions are prepared and/or the top concentration are lowered (e.g. 5 μM, 1 μM). The data are expressed as the average IC50 from the assays±standard error of the mean.

Recombinant human JAK2 = molecular target: T2, Recombinant human JAK2 (Homo sapiens, UniProt O60674); assay: JAK2 Ulight-JAK1 peptide assay; settings: Ulight-JAK1(tyr1023) peptide, 7.5 μM ATP
T2 construct: catalytic domain (amino acids 808-1132; catalog number PV4210); GST; purchased Invitrogen PV4210
T2 sequence (O60674 808-1132): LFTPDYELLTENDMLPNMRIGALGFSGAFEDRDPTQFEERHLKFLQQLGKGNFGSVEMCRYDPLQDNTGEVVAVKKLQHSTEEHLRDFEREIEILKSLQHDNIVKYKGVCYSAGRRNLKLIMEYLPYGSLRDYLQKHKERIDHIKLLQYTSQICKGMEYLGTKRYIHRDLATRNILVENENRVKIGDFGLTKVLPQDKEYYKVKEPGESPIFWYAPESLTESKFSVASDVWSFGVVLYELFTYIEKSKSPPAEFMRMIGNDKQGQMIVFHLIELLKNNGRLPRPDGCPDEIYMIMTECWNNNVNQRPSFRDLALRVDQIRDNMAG
Description: Recombinant human JAK2 (catalytic domain, amino acids […]; catalog number PV4210) was purchased from Invitrogen. 0.0125 mU of JAK2 was incubated with 25 nM Ulight-JAK1(tyr1023) peptide (Perkin Elmer catalog number TRF0121) in kinase reaction buffer (25 mM HEPES pH7.0, 0.01% Triton X-100, 7.5 mM MgCl2, 2 mM DTT, 7.5 μM ATP) with or without 4 μL containing test compound or vehicle (DMSO, 1% final concentration), in a total volume of 20 μL, in a white 384 Opti plate (Perkin Elmer, catalog number 6007290). After 60 min at room temperature, reactions were stopped by adding 20 μL/well of detection mixture (1× detection buffer (Perkin Elmer, catalog number CR97-100C), 0.5 nM Europium-anti-phosphotyrosine (PT66) (Perkin Elmer, catalog number AD0068), 10 mM EDTA). Readout is performed using the Envision with excitation at 320 nm and measuring emission at 615 nm (Perkin Elmer). Kinase activity was calculated by subtracting relative fluorescence units (RFU) obtained in the presence of a positive control inhibitor (10 μM staurosporine) from RFU obtained in the presence of vehicle. The ability of a test compound to inhibit this activity was determined as: Percentage inhibition=((RFU determined for sample with test compound present−RFU determined for sample with positive control inhibitor)divided by(RFU determined in the presence of vehicle−RFU determined for sample with positive control inhibitor))*100.
as §1, with “each compound” for “the compounds”, “JAK2” for “JAK1”

[1] = molecular target: T3, Recombinant human JAK3 catalytic domain (Homo sapiens, UniProt P52333); assay: JAK3 inhibition assay; settings: polyGT substrate, 33P-gamma-ATP filter assay, 1 μM ATP
T3 construct: catalytic domain (amino acids 795-1124; catalog number 08-046); purchased Carna Biosciences 08-046
T3 sequence (P52333 795-1124): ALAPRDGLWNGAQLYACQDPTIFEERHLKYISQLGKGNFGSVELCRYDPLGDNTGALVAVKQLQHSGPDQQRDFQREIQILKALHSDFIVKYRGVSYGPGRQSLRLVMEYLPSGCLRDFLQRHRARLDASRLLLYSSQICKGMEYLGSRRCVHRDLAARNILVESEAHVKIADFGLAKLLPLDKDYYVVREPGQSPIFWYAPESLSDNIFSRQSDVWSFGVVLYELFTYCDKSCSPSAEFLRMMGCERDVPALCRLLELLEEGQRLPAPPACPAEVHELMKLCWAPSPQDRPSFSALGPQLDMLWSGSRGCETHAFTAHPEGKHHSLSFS
Description: Recombinant human JAK3 catalytic domain (amino acids 795-1124; catalog number 08-046) was purchased from Carna Biosciences. 0.5 ng JAK3 protein was incubated with 2.5 μg polyGT substrate (Sigma catalog number P0275) in kinase reaction buffer (25 mM Tris pH 7.5, 0.5 mM EGTA, 10 mM MgCl2, 2.5 mM DTT, 0.5 mM Na3VO4, 5 mM b-glycerolphosphate, 0.01% Triton X-100, 1 μM non-radioactive ATP, 0.25 μCi ^33P-gamma-ATP (Perkin Elmer, catalog number NEG602K001MC) final concentrations) with or without 5 μL containing test compound or vehicle (DMSO, 1% final concentration), in a total volume of 25 μL, in a polypropylene 96-well plate (Greiner, V-bottom). After 45 min at 30° C., reactions were stopped by adding 25 μL/well of 150 mM phosphoric acid. All of the terminated kinase reaction was transferred to prewashed (75 mM phosphoric acid) 96 well filter plates (Perkin Elmer catalog number 6005177) using a cell harvester (Perkin Elmer). Plates were washed 6 times with 300 μL per well of a 75 mM phosphoric acid solution and the bottom of the plates was sealed. 40 μL/well of Microscint-20 was added, the top of the plates was sealed and readout was performed using the Topcount (Perkin Elmer). Kinase activity was calculated by subtracting counts per min (cpm) obtained in the presence of a positive control inhibitor (10 μM staurosporine) from cpm obtained in the presence of vehicle. The ability of a test compound to inhibit this activity was determined as: Percentage inhibition=((cpm determined for sample with test compound present−cpm determined for sample with positive control inhibitor)divided by(cpm determined in the presence of vehicle−cpm determined for sample with positive control inhibitor))*100.
Dose dilution series were prepared for the compounds enabling the testing of dose-response effects in the JAK3 assay and the calculation of the IC50 for each compound. Each compound was routinely tested at concentration of 20 μM followed by a ⅕ serial dilution, 10 points in a final concentration of 1% DMSO. When potency of compound series increased, more dilutions were prepared and/or the top concentration was lowered (e.g. 5 μM, 1 μM).

SMILES	IC50 (Recombinant human JAK1)	IC50 (Recombinant human JAK2)	IC50 [1]
CC(=O)Nc1cc2c(-c3ccc(CC(=O)N4C[C@@H](C)O[C@@H](C)C4)cc3)cccn2n1 [Compound 37, N-(4-(4-(2-((2S,6R)-2,6-dimethylmorpholino)-2-oxoethyl)phenyl)pyrazolo[1,5-a]pyridin-2-yl)acetamide]	> 1000 nM	101 to 500 nM	
CC(=O)Nc1cc2c(-c3ccc(C(=O)N4CCC4)cc3)cccn2n1 [Compound 32, N-(4-(4-(azetidine-1-carbonyl)phenyl)pyrazolo[1,5-a]pyridin-2-yl)acetamide]	101 to 500 nM	101 to 500 nM	
CC(=O)Nc1cc2c(-c3ccc(C(=O)N4C[C@@H](C)O[C@@H](C)C4)cc3)cccn2n1 [Compound 39, N-(4-(4-((2S,6R)-2,6-dimethylmorpholine-4-carbonyl)phenyl)pyrazolo[1,5-a]pyridin-2-yl)acetamide]	101 to 500 nM	101 to 500 nM	
CC(=O)Nc1cc2c(-c3cnc(OCCn4cccn4)c(F)c3)cccn2n1 [Compound 30]	101 to 500 nM	101 to 500 nM	
CC(=O)Nc1cc2c(-c3ccc(C(=O)N4COCC4(C)C)cc3)cccn2n1 [Compound 31, N-(4-(4-(4,4-dimethyloxazolidine-3-carbonyl)phenyl)pyrazolo[1,5-a]pyridin-2-yl)acetamide]	101 to 500 nM	101 to 500 nM	
COC(=O)N1CCN(Cc2ccc(-c3cccn4nc(NC(C)=O)cc34)cc2)CC1 [Compound 22]	101 to 500 nM	101 to 500 nM	
O=C(Nc1nn2cccc(-c3ccc(C(=O)N4CCCCC4)cc3)c2c1Cl)C1CC1 [Compound 16, N-(3-chloro-4-(4-(piperidine-1-carbonyl)phenyl)pyrazolo[1,5-a]pyridin-2-yl)cyclopropanecarboxamide]	101 to 500 nM	> 1000 nM	
CC(=O)Nc1cc2c(-c3ccc(CC(=O)N4CCC4)cc3)cccn2n1 [Compound 33, N-(4-(4-(2-(azetidin-1-yl)-2-oxoethyl)phenyl)pyrazolo[1,5-a]pyridin-2-yl)acetamide]	101 to 500 nM	101 to 500 nM	> 1000 nM
CC(=O)Nc1cc2c(-c3ccc(C(=O)N4CCOCC4)cc3)cccn2n1 [Compound 42, N-(4-(4-(morpholine-4-carbonyl)phenyl)pyrazolo[1,5-a]pyridin-2-yl)acetamide]	501 to 1000 nM	101 to 500 nM	
CC(=O)Nc1cc2c(-c3ccc(C(=O)N4CCCCC4)cc3)cccn2n1 [Compound 40, N-(4-(4-(piperidine-1-carbonyl)phenyl)pyrazolo[1,5-a]pyridin-2-yl)acetamide]	101 to 500 nM	101 to 500 nM	
CC(=O)Nc1cc2c(-c3ccc(C(=O)N4CC(F)(F)C4)cc3)cccn2n1 [Compound 41, N-(4-(4-(3,3-difluoroazetidine-1-carbonyl)phenyl)pyrazolo[1,5-a]pyridin-2-yl)acetamide]	101 to 500 nM	101 to 500 nM	
